From patent publication US20100041597A1, “PEPTIDES TARGETED TO PROTEIN KINASE C ISOFORMS AND USES THEREOF” (priority 2005, published 2010)

Legend:
PKC-α [1] = molecular target: T1, PKC-α (Homo sapiens, UniProt P17252); assay: Kinase-Glo Luminescent Kinase Assay, substrate myelin basic protein; type: biochemical; settings: for inhibition at 150 µM: PRE 4 150 μM; for inhibition at 300 µM: PRE 4 300 μM; for inhibition at 600 µM: PRE 4 600 μM
Method: The ability of peptide PRE 4 (see Table 3) to inhibit the activity of PKC-α was tested using increasing concentrations of PRE 4 and the Kinase-Glo™ Luminescent Kinase Assay (Promega, Cat # V6712/3/4) following the manufacturer's instructions. Briefly, the assay is based on the Luciferase luminescent reaction with ATP. The substrate was myelin basic protein (MBP, a classical substrate of the PKC family). ATP was added to the PKC-α reaction solution at a given concentration and the remaining ATP was measured by luminescence. Luminescence of blank solutions, ATP provided at the beginning of the reaction and PKC-α activity in the presence or absence of PRE 4 were measured.
Blanks are subtracted from all values.
ATP remaining in all reactions was subtracted from the ATP values at the start=relative enzyme activity (Ea).
The relative activities were all measured and the Ea in the presence of PRE 4 are reported relative to the Ea of PKC-α alone taken as 100. The difference between 100 and the % Ea of PKC-α exposed to PRE 4 represents the relative level of inhibition.

PKCepsilon = molecular target: T2, PKCepsilon (Homo sapiens, UniProt Q02156); assay: Antibody competitive binding assay with fluorescent antibody (FIG. 4); settings: PRE at 20× concentration
T2 construct: purchased
T2 sequence (Q02156 1-737): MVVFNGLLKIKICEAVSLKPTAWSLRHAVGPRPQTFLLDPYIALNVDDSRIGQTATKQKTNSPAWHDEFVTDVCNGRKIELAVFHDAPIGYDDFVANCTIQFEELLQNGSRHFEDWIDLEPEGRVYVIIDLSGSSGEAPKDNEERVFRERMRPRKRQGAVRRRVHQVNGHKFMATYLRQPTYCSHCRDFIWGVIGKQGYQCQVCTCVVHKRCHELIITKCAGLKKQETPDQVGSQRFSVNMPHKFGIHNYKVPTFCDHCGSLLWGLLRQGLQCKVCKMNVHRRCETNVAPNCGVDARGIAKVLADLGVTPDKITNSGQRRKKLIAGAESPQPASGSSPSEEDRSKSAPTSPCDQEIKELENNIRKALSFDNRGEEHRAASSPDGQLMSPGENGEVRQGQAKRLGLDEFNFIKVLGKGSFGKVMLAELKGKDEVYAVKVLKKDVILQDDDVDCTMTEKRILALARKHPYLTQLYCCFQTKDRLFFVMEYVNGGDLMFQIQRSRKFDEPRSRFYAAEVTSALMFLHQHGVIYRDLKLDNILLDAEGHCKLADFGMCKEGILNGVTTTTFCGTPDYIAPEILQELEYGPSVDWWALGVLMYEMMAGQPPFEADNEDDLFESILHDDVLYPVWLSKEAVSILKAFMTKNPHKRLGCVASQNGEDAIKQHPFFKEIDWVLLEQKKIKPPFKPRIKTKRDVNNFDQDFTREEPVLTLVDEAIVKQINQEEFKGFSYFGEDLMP
Method: (§1) FIG. 4 presents data from conventional antibody competitive binding assays using PKC-α versus a representative battery of PKC isoforms (commercially available). PKC isoforms representing the three subgroups of the PKC family were assessed (classical PKCs=PKCalpha; novel PKCs=PKCdelta and epsilon; atypical PKCs=PKCzeta). Controls received the appropriate PKC isoform fluorescent antibody. Treated samples received the PRE sequence from PhGα1 (20× concentration) and the same PKC antibody. Specific affinity to PKC-α in the treated sample by the PRE will therefore decrease the amount of binding by the fluorescent antibody, represented by a decrease in fluorescent intensity in the treated sample.

PKC-α [2] = molecular target: T1, PKC-α; assay: as above; settings: PRE at 20× concentration
Method: as §1

With “Ac-KDAQNLIGISI-NH2 [PRE 4, Ac-KDAQNLIGISI-NH2]” the inhibition at 150 µM (PKC-α [1]; Experiment 1) was 6.15%, the inhibition at 150 µM (PKC-α [1]; Experiment 2) was 28.9% and the inhibition at 150 µM (PKC-α [1]; Experiment 3) was 40.1%. It also gave an inhibition at 300 µM (PKC-α [1]; Experiment 1) of 9.76%, an inhibition at 300 µM (PKC-α [1]; Experiment 2) of 40.7% and an inhibition at 300 µM (PKC-α [1]; Experiment 3) of 35.5%. For the same substance, the inhibition at 600 µM (PKC-α [1]; Experiment 1) was 16.4%, the inhibition at 600 µM (PKC-α [1]; Experiment 2) was 53.5% and the inhibition at 600 µM (PKC-α [1]; Experiment 3) was 41.6%. The “effect on fluorescent antibody binding to PKCepsilon” value (PKCepsilon) was “not with PKCdelta, epsilon or zeta” and the “effect on fluorescent antibody binding to PKC-α” value (PKC-α [2]) was “decrease in antibody binding”.
